Experimental data reported in US20250197399A1, “COMPOUNDS, COMPOSITIONS, AND METHODS” (Tenvie Therapeutics, Inc., priority 2022, published 2025).
Where two headings read alike, the source gives them in different places.

Tested on: NLRP3
Assay: IL-1β secretion assay in PMA-differentiated, LPS/nigericin-stimulated THP-1 cells (ELISA)
Assay type: cell-based
Settings: 25 ng/mL LPS then nigericin, IL-1β in supernatant
Method: Compounds as provided herein were tested in the following assay. Cell culture medium employed contained RPMI 1640 medium (89%), FBS (10%), Pen/Strep (1%), and 2-mercaptoethanol (0.05 mM). Freezing medium was made up of 90% FBS and 10% DMSO. THP-1 cells were removed from the liquid nitrogen and placed into a 37° C. water bath to thaw, until signs of ice dissipated. The cells were then added to 9 mL of warm cell culture medium and centrifuged for 5 minutes at 1000 rpm. The supernatant was discarded, and the cells were resuspended in new cell culture medium. THP-1 cells were then split and cultured in the cell culture medium, being passaged every 2-3 days with the cell density will be maintained between 5×10^5 and 1.5×10^6 viable cells/mL.
PMA was dissolved in DMSO to make a stock solution at 5 mg/ml and stored in 10 μl aliquots at −20° C. for single use. PMA is added to normal growth medium. LPS was diluted with 1 mL of water solution to provide a 1 mg/mL stock solution and stored in 15 μL aliquots at −20° C. for single use. Nigericin is diluted in ice cold 100% ethanol to 5 mg/ml (6.7 mM) and stored in 75 μL aliquots at −20° C. for single use. Serum-free media contains RPMI 1640 medium (99%), Pen/Strep (1%), and 2-mercaptoethanol (0.05 mM). The two control conditions used to qualify and normalize test compound dose-response curves were as follows: High Control=25 ng/mL LPS, […], 0.5% DMSO, Low Control=25 ng/mL, LPS, 0.5% DMSO.
THP-1 cells were diluted to provide a suspension at a concentration of 1.0×10^6 cells/mL with the total volume of suspension required to enable the desired number of assay plates. The growth media was supplemented with PMA (5 ng/mL final concentration) and the cells were incubated at 37° C. under a humidified atmosphere of 5% CO2 for 40 h.
All media was carefully aspirated from each culture flask. The cells were washed carefully with 1×DPBS. The cells were then briefly digested with trypsin LE for 5 minutes at 23° C. and immediately resuspended in cell growth media. After resuspension, the cells were centrifuged at 1000 rpm for 3 minutes and the supernatant was discarded. The cells were resuspended in DPBS and once again centrifuged at 1000 rpm for 5 minutes. The supernatant was discarded and the cell pellet was resuspended in serum-free media supplemented with LPS (25 ng/mL final concentration) to enable the distribution of 30K THP-1 cells within 45 μL of media into each well of 384-well PDL-coated plates. The 384-well plates were then incubated at 37° C. under a humidified atmosphere of 5% CO2 for 2 h. Following this period, test compounds were dispensed by Tecan across the desired concentration range with all wells normalized to a final 0.5% DMSO concentration. The plates were then then incubated at 37° C. under a humidified atmosphere of 5% CO2 for 1 h. Following this period, 5 μL of the 5 mg/mL nigericin stock solution was added to each of the appropriate wells and plates were centrifuged at 1000 rpm for 30 seconds. The plates were the immediately reintroduced to the incubator at 37° C. under a humidified atmosphere of 5% CO2 for 2 h. After this time, 35 μL/well of supernatant was collected and transferred into v-bottom plate and centrifuged at 1000 rpm for 1 minute. These supernatant aliquots were analyzed using an IL-Iβ detection kit as described below. If needed, the test samples could be snap frozen and stored at −80° C. until analyzed.
To prepare each ELISA plate, capture antibody (mAb Mt175) was diluted with PBS to a final concentration of […] and then 20 μL of this solution was added to each well of the ELISA plate. Each plate was allowed to incubate overnight at 4° C. The next day, the capture antibody solution was removed and discarded. Each ELISA plate was washed 4 times with PBST followed by the addition of 25 µL/well of blocking buffer (Licor-927-40010) supplemented with 0.1% Tween 20. Each ELISA plate was then allowed to incubate for 1 hour at 23° C. […]

[1] = Homo sapiens, THP-1, THP-1 cells, read-out: Activity (IC50 class)
[2] = THP-1 cells, read-out: Activity
[3] = THP-1 cells, read-out: Activity (IC50 class)
[4] = Homo sapiens, THP-1, THP-1 cells, read-out: Activity

Row | Compound | IC50 [1] [nM] | IC50 [2] [nM] | IC50 [3] [nM] | IC50 [4] [nM]
1 | O=C(CN1C[C@]2(C[C@H]2F)c2cc(C(F)(F)F)ccc2C1=O)Nc1nc2ccccn2n1 (single isomer, unassigned) [Example 49, 2-[(2′s,4r)-2′-fluoro-1-oxo-6-(trifluoromethyl)spiro[3H-isoquinoline-4,1′-cyclopropane]-2-yl]-N-([1,2,4]triazolo[1,5-a]pyridin-2-yl)acetamide] | 1000 to 10000 | 1960 | – | –
2 | O=C(CN1C[C@]2(C[C@H]2F)c2cc(C(F)(F)F)ccc2C1=O)Nc1nc2ccccn2n1 (single isomer, unassigned) [Example 50, 2-[(2′s,4r)-2′-fluoro-1-oxo-6-(trifluoromethyl)spiro[3H-isoquinoline-4,1′-cyclopropane]-2-yl]-N-([1,2,4]triazolo[1,5-a]pyridin-2-yl)acetamide] | – | 184 | < 1000 | –
3 | C[C@]1(O)C[C@@H](NC(=O)CN2CC3(CC3(F)F)c3cc(C(F)(F)F)ccc3C2=O)C1 (single isomer, unassigned) [Example 52, 2-[1′,1′-difluoro-1-oxo-6-(trifluoromethyl)spiro[3H-isoquinoline-4,2′-cyclopropane]-2-yl]-N-(3-cis-hydroxy-3-methylcyclobutyl)acetamide] | – | 22400 | > 10000 | –
4 | C[C@]1(O)C[C@@H](NC(=O)CN2CC3(CC3(F)F)c3cc(C(F)(F)F)ccc3C2=O)C1 (single isomer, unassigned) [Example 53, 2-[1′,1′-difluoro-1-oxo-6-(trifluoromethyl)spiro[3H-isoquinoline-4,2′-cyclopropane]-2-yl]-N-(3-cis-hydroxy-3-methylcyclobutyl)acetamide] | – | 472 | < 1000 | –
5 | O=C(CN1CC2(CC2)c2cc(Br)ccc2C1=O)NC1CC(O)(C2CC2)C1 (single isomer, unassigned) [Example 56, 2-(6-bromo-1-oxospiro[3H-isoquinoline-4,1′-cyclopropane]-2-yl)-N-(3-cyclopropyl-3-hydroxycyclobutyl)acetamide] | – | 363 | < 1000 | –
6 | O=C(CN1CC2(CC2)c2cc(Br)ccc2C1=O)NC1CC(O)(C2CC2)C1 (single isomer, unassigned) [Example 57, 2-(6-bromo-1-oxospiro[3H-isoquinoline-4,1′-cyclopropane]-2-yl)-N-(3-cyclopropyl-3-hydroxycyclobutyl)acetamide] | – | 11100 | > 10000 | –
7 | O=C(CN1CC2(CC2(F)F)c2cc(Br)ccc2C1=O)Nc1ncc2cn[nH]c2n1 (single isomer, unassigned) [Example 64, 2-(6-bromo-1′,1′-difluoro-1-oxospiro[3H-isoquinoline-4,2′-cyclopropane]-2-yl)-N-(1H-pyrazolo[3,4-d]pyrimidin-6-yl)acetamide] | < 1000 | 8 | – | –
8 | O=C(CN1CC2(CC2(F)F)c2cc(Br)ccc2C1=O)Nc1ncc2cn[nH]c2n1 (single isomer, unassigned) [Example 65, 2-(6-bromo-1′,1′-difluoro-1-oxospiro[3H-isoquinoline-4,2′-cyclopropane]-2-yl)-N-(1H-pyrazolo[3,4-d]pyrimidin-6-yl)acetamide] | – | 504 | < 1000 | –
9 | O=C(CN1C[C@]2(C[C@H]2F)c2cc(C3(F)CC3)ccc2C1=O)Nc1ncc(C(F)(F)F)cn1 [Example 1, 2-[(2′R,4S)-2′-fluoro-6-(1-fluorocyclopropyl)-1-oxospiro[3H-isoquinoline-4,1′-cyclopropane]-2-yl]-N-(5-(trifluoromethyl)pyrimidin-2-yl)acetamide] | < 1000 | – | – | 24
10 | Cc1cnc(NC(=O)CN2C[C@]3(C[C@H]3F)c3cc(C4(F)CC4)ccc3C2=O)nc1 [Example 2, 2-[(2′R,4S)-2′-fluoro-6-(1-fluorocyclopropyl)-1-oxospiro[3H-isoquinoline-4,1′-cyclopropane]-2-yl]-N-(5-methylpyrimidin-2-yl)acetamide] | < 1000 | – | – | 18
11 | N#Cc1cnc(NC(=O)CN2C[C@]3(C[C@H]3F)c3cc(C4(F)CC4)ccc3C2=O)nc1 [Example 3, 2-[(2′R,4S)-2′-fluoro-6-(1-fluorocyclopropyl)-1-oxospiro[3H-isoquinoline-4,1′-cyclopropane]-2-yl]-N-(5-cyanopyrimidin-2-yl)acetamide] | < 1000 | – | – | 17
12 | C[C@]1(O)C[C@@H](NC(=O)CN2C[C@]3(C[C@H]3F)c3cc(C4(F)CC4)ccc3C2=O)C1 [Example 4, N-(3-cis-hydroxy-3-methylcyclobutyl)-2-[(2′R,4S)-2′-fluoro-6-(1-fluorocyclopropyl)-1-oxospiro[3H-isoquinoline-4,1′-cyclopropane]-2-yl]acetamide] | < 1000 | – | – | 16
13 | C[C@]1(O)C[C@@H](NC(=O)CN2C[C@]3(C[C@H]3F)c3c(ccc(I)c3F)C2=O)C1 [Example 5, N-(3-cis-hydroxy-3-methylcyclobutyl)-2-[(2′s,4r)-2′,5-difluoro-6-iodo-1-oxospiro[3H-isoquinoline-4,1′-cyclopropane]-2-yl]acetamide] | < 1000 | – | – | 2
14 | C[C@]1(O)C[C@@H](NC(=O)CN2C[C@]3(C[C@H]3F)c3c(ccc(C4CC4)c3F)C2=O)C1 [Example 6, N-(3-cis-hydroxy-3-methylcyclobutyl)-2-[(2′s,4r)-2′,5-difluoro-6-cyclopropyl-1-oxospiro[3H-isoquinoline-4,1′-cyclopropane]-2-yl]acetamide] | < 1000 | – | – | 72
15 | O=C(CN1CC(C(F)(F)F)c2cc(I)ccc2C1=O)Nc1ncc(Cl)cn1 (stereo not shown) [Example 7, N-(5-chloropyrimidin-2-yl)-2-(6-iodo-1-oxo-4-(trifluoromethyl)-3,4-dihydroisoquinolin-2(1H)-yl)acetamide] | < 1000 | – | – | 17
16 | Cc1cnc(NC(=O)CN2CC(C(F)(F)F)c3cc(I)ccc3C2=O)nc1 (stereo not shown) [Example 8, 2-(6-iodo-1-oxo-4-(trifluoromethyl)-3,4-dihydroisoquinolin-2(1H)-yl)-N-(5-methylpyrimidin-2-yl)acetamide] | < 1000 | – | – | 44
17 | Cc1cnc(NC(=O)CN2CC(C(F)(F)F)c3cc(C)ccc3C2=O)nc1 (stereo not shown) [Example 9, 2-(6-methyl-1-oxo-4-(trifluoromethyl)-3,4-dihydroisoquinolin-2(1H)-yl)-N-(5-methylpyrimidin-2-yl)acetamide] | 1000 to 10000 | – | – | 1540
18 | O=C(CN1CC2(CC2)c2cc(Br)ccc2C1=O)Nc1ncc2cn[nH]c2n1 [Example 42, 2-(6-bromo-1-oxo-spiro[3H-isoquinoline-4,1′-cyclopropane]-2-yl)-N-(1H-pyrazolo[3,4-d]pyrimidin-6-yl)acetamide] | < 1000 | – | – | 61
19 | O=C(CN1CC2(CC2)c2c(ccc(Br)c2F)C1=O)Nc1ncc2cn[nH]c2n1 [Example 46, 2-(6-bromo-5-fluoro-1-oxospiro[3H-isoquinoline-4,1′-cyclopropane]-2-yl)-N-(1H-pyrazolo[3,4-d]pyrimidin-6-yl)acetamide] | < 1000 | – | – | 38
20 | O=C(CN1CC2(CC2)c2cc(C(F)(F)F)ccc2C1=O)Nc1ncc2cn[nH]c2n1 [Example 51, 2-[1-oxo-6-(trifluoromethyl)spiro[3H-isoquinoline-4,1′-cyclopropane]-2-yl]-N-(1H-pyrazolo[3,4-d]pyrimidin-6-yl)acetamide] | < 1000 | – | – | 181
